Measured values taken from ChEMBL document CHEMBL1201862, “PubChem BioAssay data set” (2004).
Active and inactive are the calls of the source. Rule as the data show it: actives have a measured IC50 and inactives only a lower limit.

Tests used:
Type in all cases: functional
[1] = molecular target: T1, Tyrosine-protein phosphatase non-receptor type 22 (Homo sapiens, UniProt Q9Y2R2)
T1 sequence (Q9Y2R2 whole entry): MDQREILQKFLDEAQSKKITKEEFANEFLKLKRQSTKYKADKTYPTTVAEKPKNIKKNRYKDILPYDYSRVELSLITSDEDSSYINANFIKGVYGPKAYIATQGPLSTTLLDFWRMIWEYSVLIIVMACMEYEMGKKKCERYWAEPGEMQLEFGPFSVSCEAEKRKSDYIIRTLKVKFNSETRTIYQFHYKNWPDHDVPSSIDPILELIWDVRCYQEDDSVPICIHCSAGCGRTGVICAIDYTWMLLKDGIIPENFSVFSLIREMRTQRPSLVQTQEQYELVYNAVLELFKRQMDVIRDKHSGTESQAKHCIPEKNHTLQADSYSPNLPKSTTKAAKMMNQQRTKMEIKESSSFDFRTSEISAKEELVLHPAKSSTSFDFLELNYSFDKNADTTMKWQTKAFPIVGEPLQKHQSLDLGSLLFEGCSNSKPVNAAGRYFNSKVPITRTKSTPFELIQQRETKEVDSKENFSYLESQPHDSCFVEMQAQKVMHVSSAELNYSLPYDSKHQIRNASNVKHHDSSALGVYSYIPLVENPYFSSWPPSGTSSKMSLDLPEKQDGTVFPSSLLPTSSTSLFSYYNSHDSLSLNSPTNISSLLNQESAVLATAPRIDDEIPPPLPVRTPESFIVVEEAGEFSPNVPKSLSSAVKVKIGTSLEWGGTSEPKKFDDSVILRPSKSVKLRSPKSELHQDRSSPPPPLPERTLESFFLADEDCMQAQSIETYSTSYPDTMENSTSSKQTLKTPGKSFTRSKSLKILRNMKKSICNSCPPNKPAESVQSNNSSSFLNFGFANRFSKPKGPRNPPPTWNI

[2] = molecular target: T2, Tyrosine-protein phosphatase non-receptor type 7 (Homo sapiens, UniProt P35236)
T2 sequence (P35236 whole entry): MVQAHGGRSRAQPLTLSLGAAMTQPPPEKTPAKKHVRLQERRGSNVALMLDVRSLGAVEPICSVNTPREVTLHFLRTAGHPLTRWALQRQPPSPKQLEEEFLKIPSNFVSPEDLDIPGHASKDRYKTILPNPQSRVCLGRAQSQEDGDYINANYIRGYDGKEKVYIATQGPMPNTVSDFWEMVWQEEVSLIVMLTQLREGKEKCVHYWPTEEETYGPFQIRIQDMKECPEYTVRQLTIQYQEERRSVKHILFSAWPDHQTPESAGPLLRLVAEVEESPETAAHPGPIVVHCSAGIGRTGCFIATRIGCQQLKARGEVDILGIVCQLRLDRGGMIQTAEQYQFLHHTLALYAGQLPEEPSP

[3] = molecular target: T1, Tyrosine-protein phosphatase non-receptor type 22; remark: listed apart in the source
[4] = molecular target: T3, Voltage-gated N-type calcium channel alpha-1B subunit/Amyloid beta A4 precursor protein-binding family A member 1 (Homo sapiens, UniProt Q00975+Q02410); assay: disruptors of Mint-PDZ/N-type channel peptide interaction – biochemical, HTRF, SAR follow-up (AID 2489)
T3 sequence (Q00975 whole entry): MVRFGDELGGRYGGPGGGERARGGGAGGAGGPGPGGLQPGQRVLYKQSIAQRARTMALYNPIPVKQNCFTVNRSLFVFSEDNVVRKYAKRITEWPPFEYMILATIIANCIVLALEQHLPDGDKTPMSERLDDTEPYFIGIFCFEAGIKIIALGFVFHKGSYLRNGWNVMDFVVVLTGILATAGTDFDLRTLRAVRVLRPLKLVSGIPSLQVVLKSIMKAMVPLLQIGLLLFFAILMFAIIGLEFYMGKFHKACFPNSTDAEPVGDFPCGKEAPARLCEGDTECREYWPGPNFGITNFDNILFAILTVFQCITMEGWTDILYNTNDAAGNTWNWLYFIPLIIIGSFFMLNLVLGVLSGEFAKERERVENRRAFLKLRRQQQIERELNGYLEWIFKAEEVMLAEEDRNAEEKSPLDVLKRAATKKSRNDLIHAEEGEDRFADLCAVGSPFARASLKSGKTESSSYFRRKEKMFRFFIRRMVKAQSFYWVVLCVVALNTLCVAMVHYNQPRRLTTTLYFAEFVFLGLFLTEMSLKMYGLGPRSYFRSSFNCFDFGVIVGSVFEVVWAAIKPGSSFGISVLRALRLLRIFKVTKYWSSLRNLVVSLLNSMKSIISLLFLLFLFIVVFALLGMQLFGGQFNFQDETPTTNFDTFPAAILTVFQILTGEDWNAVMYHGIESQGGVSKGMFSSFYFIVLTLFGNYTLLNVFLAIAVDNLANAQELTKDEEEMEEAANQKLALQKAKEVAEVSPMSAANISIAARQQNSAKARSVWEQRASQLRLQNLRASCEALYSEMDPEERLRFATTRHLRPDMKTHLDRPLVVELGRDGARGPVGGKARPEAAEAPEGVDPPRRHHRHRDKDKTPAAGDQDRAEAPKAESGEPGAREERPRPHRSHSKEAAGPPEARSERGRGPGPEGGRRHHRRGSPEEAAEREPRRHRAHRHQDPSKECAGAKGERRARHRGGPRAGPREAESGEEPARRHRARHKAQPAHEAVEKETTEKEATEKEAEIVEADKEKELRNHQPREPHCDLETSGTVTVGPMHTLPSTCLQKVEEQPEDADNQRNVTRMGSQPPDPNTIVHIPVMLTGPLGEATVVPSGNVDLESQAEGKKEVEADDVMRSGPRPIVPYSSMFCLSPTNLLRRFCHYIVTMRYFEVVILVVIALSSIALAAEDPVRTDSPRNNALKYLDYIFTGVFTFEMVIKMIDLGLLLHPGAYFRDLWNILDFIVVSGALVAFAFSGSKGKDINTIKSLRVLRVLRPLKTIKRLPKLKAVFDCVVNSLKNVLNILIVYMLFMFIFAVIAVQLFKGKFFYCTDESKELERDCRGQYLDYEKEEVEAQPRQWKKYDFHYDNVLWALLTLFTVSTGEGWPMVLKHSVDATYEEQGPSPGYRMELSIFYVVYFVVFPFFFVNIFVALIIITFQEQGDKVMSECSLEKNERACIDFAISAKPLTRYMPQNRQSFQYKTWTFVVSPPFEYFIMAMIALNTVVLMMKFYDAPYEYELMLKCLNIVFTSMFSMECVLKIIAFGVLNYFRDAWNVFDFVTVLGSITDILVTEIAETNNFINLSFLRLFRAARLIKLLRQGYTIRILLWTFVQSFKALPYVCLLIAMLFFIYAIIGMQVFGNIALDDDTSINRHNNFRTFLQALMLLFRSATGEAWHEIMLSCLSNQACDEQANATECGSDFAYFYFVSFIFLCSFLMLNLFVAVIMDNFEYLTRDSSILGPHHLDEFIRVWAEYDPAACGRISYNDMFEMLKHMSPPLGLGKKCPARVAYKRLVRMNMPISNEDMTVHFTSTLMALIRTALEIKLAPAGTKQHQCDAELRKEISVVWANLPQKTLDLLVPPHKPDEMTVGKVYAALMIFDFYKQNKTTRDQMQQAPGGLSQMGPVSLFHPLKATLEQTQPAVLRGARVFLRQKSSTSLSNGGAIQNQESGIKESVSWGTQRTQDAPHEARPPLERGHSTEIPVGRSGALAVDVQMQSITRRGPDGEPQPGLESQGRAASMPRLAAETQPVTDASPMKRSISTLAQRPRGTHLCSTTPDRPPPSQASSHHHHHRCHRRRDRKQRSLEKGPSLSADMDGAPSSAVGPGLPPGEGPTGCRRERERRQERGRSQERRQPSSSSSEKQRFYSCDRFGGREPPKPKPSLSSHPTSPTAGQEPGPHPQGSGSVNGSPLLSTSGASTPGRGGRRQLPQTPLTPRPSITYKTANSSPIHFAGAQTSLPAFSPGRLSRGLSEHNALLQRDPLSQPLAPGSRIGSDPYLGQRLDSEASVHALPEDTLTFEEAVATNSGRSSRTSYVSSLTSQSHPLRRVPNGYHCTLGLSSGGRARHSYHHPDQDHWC
T3 sequence (Q02410 whole entry): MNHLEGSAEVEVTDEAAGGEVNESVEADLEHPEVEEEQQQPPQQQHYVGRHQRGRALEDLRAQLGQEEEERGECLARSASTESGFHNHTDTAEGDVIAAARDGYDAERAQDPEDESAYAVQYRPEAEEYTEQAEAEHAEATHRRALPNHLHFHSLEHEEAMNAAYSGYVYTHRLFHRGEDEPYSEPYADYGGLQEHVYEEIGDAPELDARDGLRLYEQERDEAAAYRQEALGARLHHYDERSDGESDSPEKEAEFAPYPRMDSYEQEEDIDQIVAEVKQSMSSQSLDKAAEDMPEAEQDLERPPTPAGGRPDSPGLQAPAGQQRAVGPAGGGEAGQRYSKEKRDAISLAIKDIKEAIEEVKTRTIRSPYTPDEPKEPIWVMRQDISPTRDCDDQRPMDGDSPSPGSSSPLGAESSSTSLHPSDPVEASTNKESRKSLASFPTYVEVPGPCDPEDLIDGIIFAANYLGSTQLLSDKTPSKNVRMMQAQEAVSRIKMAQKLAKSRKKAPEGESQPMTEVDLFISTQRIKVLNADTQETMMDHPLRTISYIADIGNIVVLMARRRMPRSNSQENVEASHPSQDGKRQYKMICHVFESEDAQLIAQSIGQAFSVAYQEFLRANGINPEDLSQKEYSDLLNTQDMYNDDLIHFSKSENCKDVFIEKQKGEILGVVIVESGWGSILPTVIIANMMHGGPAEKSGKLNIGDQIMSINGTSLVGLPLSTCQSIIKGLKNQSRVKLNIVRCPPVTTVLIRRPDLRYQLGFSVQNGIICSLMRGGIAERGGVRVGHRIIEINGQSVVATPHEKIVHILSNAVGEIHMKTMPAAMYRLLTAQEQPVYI

[5] = molecular target: T3, Voltage-gated N-type calcium channel alpha-1B subunit/Amyloid beta A4 precursor protein-binding family A member 1; assay: disruptors of Mint-PDZ/N-type channel peptide interaction – biochemical, HTRF, set 2, SAR follow-up (AID 434980)
SUMO E1/E2 = SUMO E1/E2 (Homo sapiens, UniProt P63279+Q9UBE0+Q9UBT2); assay: SAR analysis of SUMOylation using HTRF in an in-Vitro dose response assay. [Related pubchem assays (depositor defined):AID2006, AID2011, AID2018, AID2069, AID2658]
SUMO E1/E2, sequence (Q9UBE0 whole entry): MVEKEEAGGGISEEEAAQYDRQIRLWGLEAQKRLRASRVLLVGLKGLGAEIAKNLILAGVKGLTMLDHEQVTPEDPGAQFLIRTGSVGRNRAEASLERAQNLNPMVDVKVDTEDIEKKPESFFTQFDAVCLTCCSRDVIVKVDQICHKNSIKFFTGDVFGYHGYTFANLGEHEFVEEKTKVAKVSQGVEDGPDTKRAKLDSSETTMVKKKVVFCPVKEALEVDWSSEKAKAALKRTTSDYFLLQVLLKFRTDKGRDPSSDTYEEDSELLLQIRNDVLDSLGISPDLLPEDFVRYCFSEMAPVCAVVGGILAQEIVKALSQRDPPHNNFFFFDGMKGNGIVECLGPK
SUMO E1/E2, sequence (Q9UBT2 whole entry): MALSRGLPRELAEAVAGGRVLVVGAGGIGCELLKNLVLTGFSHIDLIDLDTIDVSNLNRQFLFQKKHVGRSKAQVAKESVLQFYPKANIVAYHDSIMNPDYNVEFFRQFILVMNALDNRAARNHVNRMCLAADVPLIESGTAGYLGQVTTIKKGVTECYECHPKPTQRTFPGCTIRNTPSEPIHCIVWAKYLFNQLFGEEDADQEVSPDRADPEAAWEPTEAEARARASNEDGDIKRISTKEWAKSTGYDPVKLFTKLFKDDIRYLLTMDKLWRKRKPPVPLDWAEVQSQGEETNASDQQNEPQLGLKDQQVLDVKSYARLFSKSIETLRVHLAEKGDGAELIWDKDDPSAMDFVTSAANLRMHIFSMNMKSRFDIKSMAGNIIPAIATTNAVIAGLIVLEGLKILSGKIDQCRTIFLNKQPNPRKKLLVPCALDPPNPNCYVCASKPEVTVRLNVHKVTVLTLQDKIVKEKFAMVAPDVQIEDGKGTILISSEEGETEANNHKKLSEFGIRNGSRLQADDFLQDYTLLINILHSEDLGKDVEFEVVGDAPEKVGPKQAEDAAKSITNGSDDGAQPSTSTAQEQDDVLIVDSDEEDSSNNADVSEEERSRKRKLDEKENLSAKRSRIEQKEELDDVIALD
SUMO E1/E2, sequence (P63279 whole entry): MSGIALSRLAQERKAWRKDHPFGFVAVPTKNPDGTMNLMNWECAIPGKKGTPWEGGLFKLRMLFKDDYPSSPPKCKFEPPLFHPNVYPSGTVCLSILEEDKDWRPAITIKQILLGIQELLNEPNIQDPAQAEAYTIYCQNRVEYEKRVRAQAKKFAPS

IC50 [1] | IC50 [2] | IC50 [3] | IC50 [4] | IC50 [5] | IC50 (SUMO E1/E2) | SMILES
> 79.4 µM (inactive) | > 79.4 µM (inactive) | > 79.4 µM (inactive) |  |  |  | CSCC[C@H](NC(=O)Nc1cccc(C(F)(F)F)c1)C(=O)O
 |  |  | 32.9 µM (active) | 12.2 µM (active) | 11.5 µM (active) | COc1ccc(CCNC(=O)COC(=O)c2cc(-c3ccco3)nc3ccccc23)cc1
